Source: patent US20220281848A1, “PYRAZOLE-SUBSTITUTED PYRROLIDINONES AS HERBICIDES” (FMC Corporation, priority 2019, published 2022)

What was measured:
Assay type in all cases: in vivo
Settings in all cases: after 13 d
[1] = tested on: redroot pigweed (Amaranthus retroflexus, AMARE); test: Test A pre-emergence, redroot pigweed
Method: (§1) Seeds of corn (Zea mays, ZEAMX), giant foxtail (Setaria faberi, SETFA), barnyardgrass (Echinochloa crus-galli, ECHCG), ivy-leaved morning glory (Ipomoea hederacea, IPOHE), redroot pigweed (Amaranthus retroflexus, AMARE) and velvetleaf (Abutilon theophrasti, ABUTH) were sown in standard soil in pots. After cultivation for one day under controlled conditions in a glasshouse (at 24/16° C., day/night; 14 h light; 65% humidity), the plants were sprayed with an aqueous spray solution derived from the formulation of the technical active ingredient in acetone/water (50:50) solution containing 0.5% Tween 20 (polyoxyethylene sorbitan monolaurate, CAS RN 9005-64-5) to give a final dose of 15.625, 62.5 or 250 g/ha of test compound.
(§2) The test plants were then grown under controlled conditions in a glasshouse (at 24/16° C., day/night; 14 h light; 65% humidity) and watered twice daily. After 13 d the test was evaluated (100=total damage to plant; 0=no damage to plant).

[2] = tested on: ivy-leaved morning glory (Ipomoea hederacea, IPOHE); test: Test A pre-emergence, ivy-leaved morning glory
Method: as §1, §2

[3] = tested on: ivy-leaved morning glory (Ipomoea hederacea, IPOHE); test: Test A post-emergence, ivy-leaved morning glory
Method: as §1, with “IPOHE)),” for “IPOHE),”, “8 d” for “one day”
(§3) The test plants were then grown on under controlled conditions in a glasshouse (at 24/16° C., day/night; 14 h light; 65% humidity) and watered twice daily. After 13 d the test was evaluated (100=total damage to plant; 0=no damage to plant).

[4] = tested on: redroot pigweed (Amaranthus retroflexus, AMARE); test: Test A post-emergence, redroot pigweed
Method: as §1, with “IPOHE)),” for “IPOHE),”, “8 d” for “one day”
as §3

[5] = tested on: velvetleaf (Abutilon theophrasti, ABUTH); test: Test A pre-emergence, velvetleaf
Method: as §1, §2

[6] = tested on: giant foxtail (Setaria faberi, SETFA); test: Test A post-emergence, giant foxtail
Method: as §1, with “IPOHE)),” for “IPOHE),”, “8 d” for “one day”
as §3

[7] = tested on: corn (Zea mays, ZEAMX); test: Test A pre-emergence, corn
Method: as §1, §2

[8] = tested on: barnyardgrass (Echinochloa crus-galli, ECHCG); test: Test A pre-emergence, barnyardgrass
Method: as §1, §2

[9] = tested on: corn (Zea mays, ZEAMX); test: Test A post-emergence, corn
Method: as §1, with “IPOHE)),” for “IPOHE),”, “8 d” for “one day”
as §3

[10] = tested on: velvetleaf (Abutilon theophrasti, ABUTH); test: Test A post-emergence, velvetleaf
Method: as §1, with “IPOHE)),” for “IPOHE),”, “8 d” for “one day”
as §3

[11] = tested on: barnyardgrass (Echinochloa crus-galli, ECHCG); test: Test A post-emergence, barnyardgrass
Method: as §1, with “IPOHE)),” for “IPOHE),”, “8 d” for “one day”
as §3

[12] = tested on: giant foxtail (Setaria faberi, SETFA); test: Test A pre-emergence, giant foxtail
Method: as §1, §2

Row | Structure (SMILES) | damage to plant (100=total damage; 0=no damage) AMARE ([1]; Pre-Emergence at 15.625 g/ha) | damage to plant (100=total damage; 0=no damage) AMARE ([1]; Pre-Emergence at 62.5 g/ha) | damage to plant (100=total damage; 0=no damage) IPOHE ([2]; Pre-Emergence at 15.625 g/ha) | damage to plant (100=total damage; 0=no damage) IPOHE ([2]; Pre-Emergence at 62.5 g/ha) | damage to plant (100=total damage; 0=no damage) IPOHE ([3]; Post-Emergence at 15.625 g/ha) | damage to plant (100=total damage; 0=no damage) IPOHE ([3]; Post-Emergence at 62.5 g/ha) | damage to plant (100=total damage; 0=no damage) AMARE ([4]; Post-Emergence at 15.625 g/ha) | damage to plant (100=total damage; 0=no damage) AMARE ([4]; Post-Emergence at 62.5 g/ha) | damage to plant (100=total damage; 0=no damage) ABUTH ([5]; Pre-Emergence at 15.625 g/ha) | damage to plant (100=total damage; 0=no damage) ABUTH ([5]; Pre-Emergence at 62.5 g/ha) | damage to plant (100=total damage; 0=no damage) SETFA ([6]; Post-Emergence at 15.625 g/ha) | damage to plant (100=total damage; 0=no damage) SETFA ([6]; Post-Emergence at 62.5 g/ha) | damage to plant (100=total damage; 0=no damage) ZEAMX ([7]; Pre-Emergence at 15.625 g/ha) | damage to plant (100=total damage; 0=no damage) ZEAMX ([7]; Pre-Emergence at 62.5 g/ha) | damage to plant (100=total damage; 0=no damage) ECHCG ([8]; Pre-Emergence at 15.625 g/ha) | damage to plant (100=total damage; 0=no damage) ECHCG ([8]; Pre-Emergence at 62.5 g/ha) | damage to plant (100=total damage; 0=no damage) ZEAMX ([9]; Post-Emergence at 15.625 g/ha) | damage to plant (100=total damage; 0=no damage) ZEAMX ([9]; Post-Emergence at 62.5 g/ha) | damage to plant (100=total damage; 0=no damage) ABUTH ([10]; Post-Emergence at 15.625 g/ha) | damage to plant (100=total damage; 0=no damage) ABUTH ([10]; Post-Emergence at 62.5 g/ha) | other results
1 | CN1CC(c2cc(C(F)(F)F)n(C)n2)C(C(=O)Nc2cccc(F)c2OC(F)(F)F)C1=O (racemic) [Compound 16] | 0 | 0 | 0 | 0 | 0 | 0 | 0 | 0 | 0 | 0 | 0 | 60 | 0 | 0 | 0 | 80 | 0 | 0 | 0 | 0 | damage to plant (100=total damage; 0=no damage) AMARE ([1]; Pre-Emergence at 250 g/ha): 0; damage to plant (100=total damage; 0=no damage) IPOHE ([2]; Pre-Emergence at 250 g/ha): 50; damage to plant (100=total damage; 0=no damage) IPOHE ([3]; Post-Emergence at 250 g/ha): 0; damage to plant (100=total damage; 0=no damage) AMARE ([4]; Post-Emergence at 250 g/ha): 0; damage to plant (100=total damage; 0=no damage) ABUTH ([5]; Pre-Emergence at 250 g/ha): 0; damage to plant (100=total damage; 0=no damage) SETFA ([6]; Post-Emergence at 250 g/ha): 70; damage to plant (100=total damage; 0=no damage) ZEAMX ([7]; Pre-Emergence at 250 g/ha): 30; damage to plant (100=total damage; 0=no damage) ECHCG ([8]; Pre-Emergence at 250 g/ha): 90; damage to plant (100=total damage; 0=no damage) ZEAMX ([9]; Post-Emergence at 250 g/ha): 0; damage to plant (100=total damage; 0=no damage) ABUTH ([10]; Post-Emergence at 250 g/ha): 0; damage to plant (100=total damage; 0=no damage) ECHCG ([11]; Post-Emergence at 15.625 g/ha): 0; damage to plant (100=total damage; 0=no damage) ECHCG ([11]; Post-Emergence at 62.5 g/ha): 50; damage to plant (100=total damage; 0=no damage) ECHCG ([11]; Post-Emergence at 250 g/ha): 70; damage to plant (100=total damage; 0=no damage) SETFA ([12]; Pre-Emergence at 15.625 g/ha): 0; damage to plant (100=total damage; 0=no damage) SETFA ([12]; Pre-Emergence at 62.5 g/ha): 80; damage to plant (100=total damage; 0=no damage) SETFA ([12]; Pre-Emergence at 250 g/ha): 90
2 | Cn1nc([C@H]2CNC(=O)[C@@H]2C(=O)Nc2cccc(F)n2)cc1C(C)(C)C [Compound 1] | 0 | 0 | 0 | 0 | 0 | 0 | 0 | 0 | 0 | 0 | 0 | 0 | 0 | 0 | 0 | 0 | 0 | 0 | 0 | 0 | damage to plant (100=total damage; 0=no damage) ECHCG ([11]; Post-Emergence at 15.625 g/ha): 0; damage to plant (100=total damage; 0=no damage) ECHCG ([11]; Post-Emergence at 62.5 g/ha): 0; damage to plant (100=total damage; 0=no damage) SETFA ([12]; Pre-Emergence at 15.625 g/ha): 0; damage to plant (100=total damage; 0=no damage) SETFA ([12]; Pre-Emergence at 62.5 g/ha): 0
